Results: patent publication US8263598B2, “Substituted sulfonamide compounds” (Gruenenthal GmbH, priority 2008, dated 2012)

How the values were obtained:
[1] = molecular target: T1, human B1R receptor (hB1R) (Homo sapiens, UniProt P46663); test: FLIPR Ca2+ assay on human bradykinin 1 receptor (CHO K1 hB1R cells); assay type: cell-based; conditions: test substance 10 μM; CHO K1 cells with human B1R gene; agonist Lys-Des-Arg9-bradykinin 0.5 nM; compared to maximum achievable inhibition
T1 construct: host or cells: CHO K1 cells
T1 sequence (P46663 1-353): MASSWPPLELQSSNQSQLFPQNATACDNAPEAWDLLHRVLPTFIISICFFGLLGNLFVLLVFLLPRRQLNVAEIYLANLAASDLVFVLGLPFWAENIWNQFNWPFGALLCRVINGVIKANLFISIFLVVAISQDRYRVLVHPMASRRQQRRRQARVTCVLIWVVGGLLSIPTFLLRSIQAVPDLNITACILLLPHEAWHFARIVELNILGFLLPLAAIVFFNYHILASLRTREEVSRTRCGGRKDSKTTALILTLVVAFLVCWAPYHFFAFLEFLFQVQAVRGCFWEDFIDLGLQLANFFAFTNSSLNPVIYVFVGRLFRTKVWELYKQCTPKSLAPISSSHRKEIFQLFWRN
Procedure, shortened: (§1)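 CHO K1 cells stably expressing human or rat B1R were loaded with Fluo-4 and tested at 10 μM compound. Ca²⁺ signal was read in FLIPR as % activation versus agonist. After 10 min, agonist was added (hB1R: Lys-Des-Arg9-bradykinin 0.5 nM; rB1R: Des-Arg9-bradykinin 100 nM), and % inhibition was taken relative to maximum achievable inhibition.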

[2] = molecular target: T2, B1R receptor of rats (rB1R) (Rattus norvegicus, UniProt P97583); test: FLIPR Ca2+ assay on rat bradykinin 1 receptor (CHO K1 rB1R cells); assay type: cell-based; conditions: test substance 10 μM; CHO K1 cells with B1R gene of rats; agonist Des-Arg9-bradykinin 100 nM; compared to maximum achievable inhibition
T2 construct: host or cells: CHO K1 cells
T2 sequence (P97583 1-337): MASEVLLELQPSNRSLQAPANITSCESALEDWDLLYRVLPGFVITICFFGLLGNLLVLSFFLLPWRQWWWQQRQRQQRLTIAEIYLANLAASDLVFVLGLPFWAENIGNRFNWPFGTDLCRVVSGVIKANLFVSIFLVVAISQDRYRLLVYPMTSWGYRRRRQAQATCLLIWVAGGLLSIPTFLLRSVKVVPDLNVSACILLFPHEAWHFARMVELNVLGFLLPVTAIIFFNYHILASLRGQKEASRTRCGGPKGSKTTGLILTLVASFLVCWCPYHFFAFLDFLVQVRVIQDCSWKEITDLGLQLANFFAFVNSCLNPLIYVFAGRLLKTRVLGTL
Procedure, shortened: as §1

| inhibition at 10 µM [1] [%] | inhibition at 10 µM [2] [%] | hB1R [10 μM] % Inhibition [1] [%] | rB1R [10 μM] % Inhibition [2] [%] | Molecule |
| --- | --- | --- | --- | --- |
| 103 | 102 |  |  | COc1cc(C)c(S(=O)(=O)N(CCOCC(=O)N2CCn3c(CN4CCCC4)ccc3C2c2ccccc2)Cc2ccccc2)c(C)c1C (centres unmarked) [Example 116, N-benzyl-4-methoxy-2,3,6-trimethyl-N-(2-(2-oxo-2-(1-phenyl-6-(pyrrolidin-1-ylmethyl)-3,4-dihydropyrrolo[1,2-a]pyrazin-2(1H)-yl)ethoxy)ethyl)benzene-sulfonamide] |
| 99 | 97 |  |  | COc1cc(C)c(S(=O)(=O)N(C)CCOCC(=O)N2CCn3c(ccc3-c3ccncc3)C2)c(C)c1 [Example 177, 4-Methoxy-N,2,6-trimethyl-N-(2-(2-oxo-2-(6-(pyridin-4-yl)-3,4-dihydropyrrolo[1,2-a]pyrazin-2(1H)-yl)ethoxy)ethyl)benzenesulfonamide] |
| 55 | 57 |  |  | O=C(CC(NS(=O)(=O)c1ccc2ccccc2c1)c1ccccc1)N1CCn2c(ccc2-c2ccncc2)C1 (centres unmarked) [Example 168, N-(3-Oxo-1-phenyl-3-(6-(pyridin-4-yl)-3,4-dihydropyrrolo[1,2-a]pyrazin-2(1H)-yl)propyl)naphthalene-2-sulfonamide] |
| 104 | 102 |  |  | CCC1c2cccn2CCN1C(=O)COCCN(C)S(=O)(=O)c1c(C)cc(OC)cc1C (centres unmarked) [Example 135, N-(2-(2-(1-ethyl-3,4-dihydropyrrolo[1,2-a]pyrazin-2(1H)-yl)-2-oxoethoxy)ethyl)-4-methoxy-N,2,6-trimethylbenzenesulfonamide] |
| 91 | 71 |  |  | COc1cc(C)c(S(=O)(=O)N(C)CCOCC(=O)N2CCn3cccc3C2c2ccc(C)c(C)c2)c(C)c1C (centres unmarked) [Example 86, N-(2-(2-(1-(3,4-dimethylphenyl)-3,4-dihydropyrrolo[1,2-a]pyrazin-2(1H)-yl)-2-oxoethoxy)ethyl)-4-methoxy-N,2,3,6-tetramethylbenzenesulfonamide] |
| 104 | 104 |  |  | COc1cc(C)c(S(=O)(=O)N(C)CCOCC(=O)N2CCn3c(CN4CCCCC4)ccc3C2c2ccccc2)c(C)c1C (centres unmarked) [Example 149, 4-methoxy-N,2,3,6-tetramethyl-N-(2-(2-oxo-2-(1-phenyl-6-(piperidin-1-ylmethyl)-3,4-dihydropyrrolo[1,2-a]pyrazin-2(1H)-yl)ethoxy)ethyl)benzene-sulfonamide] |
| 101 | 102 |  |  | COc1cc(C)c(S(=O)(=O)N(CCOCC(=O)N2CCn3c(CN(C)C)ccc3C2c2ccccc2)Cc2ccccc2)c(C)c1 (centres unmarked) [Example 126, N-benzyl-N-(2-(2-(6-((dimethylamino)methyl)-1-phenyl-3,4-dihydropyrrolo[1,2-a]pyrazin-2(1H)-yl)-2-oxoethoxy)ethyl)-4-methoxy-2,6-dimethylbenzenesulfonamide] |
| 102 | 102 |  |  | CCCC1c2cccn2CCN1C(=O)COCCN(C)S(=O)(=O)c1c(C)cc(C)cc1C (centres unmarked) [Example 146, N,2,4,6-tetramethyl-N-(2-(2-oxo-2-(1-propyl-3,4-dihydropyrrolo[1,2-a]pyrazin-2(1H)-yl)ethoxy)ethyl)benzenesulfonamide] |
| 101 | 99 |  |  | COc1cc(C)c(S(=O)(=O)N(C)CCOCC(=O)N2CCn3cccc3C2c2ccccc2)c(C)c1C (centres unmarked) [Example 84, 4-methoxy-N,2,3,6-tetramethyl-N-(2-(2-oxo-2-(1-phenyl-3,4-dihydropyrrolo[1,2-a]pyrazin-2(1H)-yl)ethoxy)ethyl)benzenesulfonamide] |

Further lines, the molecule ahead of its results:

| Molecule | inhibition at 10 µM [1] [%] | inhibition at 10 µM [2] [%] | hB1R [10 μM] % Inhibition [1] [%] | rB1R [10 μM] % Inhibition [2] [%] |
| --- | --- | --- | --- | --- |
| COc1ccc(C2c3cccn3CCN2C(=O)COCCN(Cc2ccccc2)S(=O)(=O)c2c(C)cc(OC)cc2C)cc1 (centres unmarked) [Example 47, N-benzyl-4-methoxy-N-(2-(2-(1-(4-methoxyphenyl)-3,4-dihydropyrrolo[1,2-a]pyrazin-2(1H)-yl)-2-oxoethoxy)ethyl)-2,6-dimethylbenzenesulfonamide] | 42 | 100 |  |  |
| COc1cc(C)c(S(=O)(=O)N(C)CCOCC(=O)N2CCn3cccc3C2c2ccc(F)c(F)c2)c(C)c1 (centres unmarked) [Example 57, N-(2-(2-(1-(3,4-difluorophenyl)-3,4-dihydropyrrolo[1,2-a]pyrazin-2(1H)-yl)-2-oxoethoxy)ethyl)-4-methoxy-N,2,6-trimethylbenzenesulfonamide] | 102 | 99 |  |  |
| COc1c(C)cc(S(=O)(=O)N(C)CCOCC(=O)N2CCn3cccc3C2c2cccc(F)c2)c(C)c1C (centres unmarked) [Example 35, N-(2-(2-(1-(3-fluorophenyl)-3,4-dihydropyrrolo[1,2-a]pyrazin-2(1H)-yl)-2-oxoethoxy)ethyl)-4-methoxy-N,2,3,5-tetramethylbenzenesulfonamide] | 81 | 48 |  |  |
| COc1cc(C)c(S(=O)(=O)N(CCOCC(=O)N2CCn3cccc3C2C(C)(C)C)Cc2ccccc2)c(C)c1 (centres unmarked) [Example 44, N-benzyl-N-(2-(2-(1-tert-butyl-3,4-dihydropyrrolo[1,2-a]pyrazin-2(1H)-yl)-2-oxoethoxy)ethyl)-4-methoxy-2,6-dimethylbenzenesulfonamide] | 88 | 98 |  |  |
| COc1cc(C)c(S(=O)(=O)N(CCOCC(=O)N2CCn3cccc3C2C)Cc2ccccc2)c(C)c1C (centres unmarked) [Example 40, N-benzyl-4-methoxy-2,3,6-trimethyl-N-(2-(2-(1-methyl-3,4-dihydropyrrolo[1,2-a]pyrazin-2(1H)-yl)-2-oxoethoxy)ethyl)benzenesulfonamide] | 34 | 95 |  |  |
| COc1cc(C)c(S(=O)(=O)N(C)CCOCC(=O)N2CCn3c(CN(C)C)ccc3C2c2ccccc2)c(C)c1 (centres unmarked) [Example 14, N-(2-(2-(6-((dimethylamino)methyl)-1-phenyl-3,4-dihydropyrrolo[1,2-a]pyrazin-2(1H)-yl)-2-oxoethoxy)ethyl)-4-methoxy-N,2,6-trimethylbenzenesulfonamide] | 103 | 100 |  |  |
| COc1cccc(C2c3cccn3CCN2C(=O)COCCN(C)S(=O)(=O)c2c(C)cc(OC)cc2C)c1 (centres unmarked) [Example 62, 4-methoxy-N-(2-(2-(1-(3-methoxyphenyl)-3,4-dihydropyrrolo[1,2-a]pyrazin-2(1H)-yl)-2-oxoethoxy)ethyl)-N,2,6-trimethylbenzenesulfonamide] | 101 | 98 |  |  |
| COc1cc(C)c(S(=O)(=O)N(CCOCC(=O)N2CCn3cccc3C2c2ccccc2)CC(C)C)c(C)c1C (centres unmarked) [Example 23, N-isobutyl-4-methoxy-2,3,6-trimethyl-N-(2-(2-oxo-2-(1-phenyl-3,4-dihydropyrrolo[1,2-a]pyrazin-2(1H)-yl)ethoxy)ethyl)benzenesulfonamide] | 47 | 97 |  |  |
| COc1cc(C)c(S(=O)(=O)N(C)CCOCC(=O)N2CCn3cccc3C2c2cccnc2)c(C)c1 (centres unmarked) [Example 54, 4-methoxy-N,2,6-trimethyl-N-(2-(2-oxo-2-(1-(pyridin-3-yl)-3,4-dihydropyrrolo[1,2-a]pyrazin-2(1H)-yl)ethoxy)ethyl)benzenesulfonamide] | 98 | 93 |  |  |
| COc1c(C)cc(S(=O)(=O)N(C)CCOCC(=O)N2CCn3cccc3C2c2ccc(C(F)(F)F)cc2F)c(C)c1C (centres unmarked) [Example 39, N-(2-(2-(1-(2-fluoro-4-(trifluoromethyl)phenyl)-3,4-dihydropyrrolo[1,2-a]pyrazin-2(1H)-yl)-2-oxoethoxy)ethyl)-4-methoxy-N,2,3,5-tetramethyl-benzenesulfonamide] | 35 | 80 |  |  |
| COc1cc(C)c(S(=O)(=O)N(C)CCOCC(=O)N2CCn3c(CN4CCCCC4)ccc3C2c2ccccc2)c(C)c1 (centres unmarked) [Example 16, 4-methoxy-N,2,6-trimethyl-N-(2-(2-oxo-2-(1-phenyl-6-(piperidin-1-ylmethyl)-3,4-dihydropyrrolo[1,2-a]pyrazin-2(1H)-yl)ethoxy)ethyl)benzenesulfonamide] | 104 | 102 |  |  |
| N-benzyl-N-(2-(2-(6-((dimethylamino)methyl)-1-ethyl-3,4-dihydropyrrolo[1,2-a]pyrazin-2(1H)-yl)-2-oxoethyl)ethyl)-4-methoxy-2,3,6-trimethylbenzenesulfonamide [Example 122] |  |  | 101 | 101 |
| COc1cc(C)c(S(=O)(=O)N(CCOCC(=O)N2CCn3cccc3C2c2ccc(Cl)nc2)CC(C)C)c(C)c1C (centres unmarked) [Example 20, N-(2-(2-(1-(6-chloropyridin-3-yl)-3,4-dihydropyrrolo[1,2-a]pyrazin-2(1H)-yl)-2-oxoethoxy)ethyl)-N-isobutyl-4-methoxy-2,3,6-trimethylbenzenesulfonamide] | 84 | 98 |  |  |
